According to DBAASP:
Converted amounts (≈) assume the structure as drawn.

Columns and labels:
Experiment in all cases: ≥ marks a high value that may be exact or a test limit, other limits are often not marked, values filed in µg/mL are converted to µM
Escherichia coli K-12 = tested on: Escherichia coli K-12
[1] = tested on: Staphylococcus aureus USA 300
Bacillus cereus = tested on: Bacillus cereus
Escherichia coli = tested on: Escherichia coli
Leuconostoc lactis = tested on: Leuconostoc lactis
Listeria innocua = tested on: Listeria innocua
Micrococcus luteus = tested on: Micrococcus luteus
Pasteurella multocida = tested on: Pasteurella multocida
Staphylococcus aureus = tested on: Staphylococcus aureus
[2] = tested on: Staphylococcus epidermidis
Streptococcus uberis = tested on: Streptococcus uberis
Enterococcus faecalis = tested on: Enterococcus faecalis
Candida albicans = tested on: Candida albicans
Klebsiella pneumoniae = tested on: Klebsiella pneumoniae
Proteus mirabilis = tested on: Proteus mirabilis
Pseudomonas aeruginosa = tested on: Pseudomonas aeruginosa
Salmonella typhimurium = tested on: Salmonella typhimurium
Serratia marcescens = tested on: Serratia marcescens
Shigella dysenteriae = tested on: Shigella dysenteriae
[3] = tested on: Escherichia coli ATCC 25922
[4] = tested on: Pseudomonas aeruginosa PAO1
Acinetobacter baumannii = tested on: Acinetobacter baumannii
[5] = tested on: Candida albicans ATCC 2002
Enterococcus faecium = tested on: Enterococcus faecium
[6] = tested on: Staphylococcus aureus ATCC 2592
[7] = tested on: Klebsiella pneumoniae ATCC 13883

Compound | MIC [1] [µM] | MIC (Bacillus cereus) [µM] | MIC (Escherichia coli) [µM] | MIC (Leuconostoc lactis) [µM] | MIC (Listeria innocua) [µM] | MIC (Micrococcus luteus) [µM] | MIC (Pasteurella multocida) [µM] | MIC (Staphylococcus aureus) [µM] | MIC [2] [µM] | MIC (Streptococcus uberis) [µM] | MIC [3] [µM] | also measured
CC[C@H](C)[C@H](NC(=O)[C@H](C)NC(=O)[C@H](CCC(=O)O)NC(=O)[C@H](Cc1cnc[nH]1)NC(=O)[C@H](CC(C)C)NC(=O)CNC(=O)[C@H](CCC(N)=O)NC(=O)[C@H](Cc1ccccc1)NC(=O)[C@@H](NC(=O)[C@H](CCCCN)NC(=O)[C@H](CCCCN)NC(=O)[C@H](CC(C)C)NC(=O)[C@@H](NC(=O)[C@H](CC(N)=O)NC(=O)[C@H](CC(C)C)NC(=O)CN)[C@@H](C)O)C(C)C)C(=O)N[C@@H](CCCCN)C(=O)N[C@@H](CC(C)C)C(=O)N[C@H](C(=O)N[C@@H](CC(N)=O)C(=O)N[C@@H](CC(N)=O)C(=O)N[C@@H](Cc1cnc[nH]1)C(=O)N[C@H](C(=O)N[C@@H](CCC(N)=O)C(=O)O)C(C)C)[C@@H](C)CC [GLNTLKKVFQGLHEAIKLINNHVQ] | ≥ 100 |  |  |  |  |  |  |  |  |  |  | MIC (Escherichia coli K-12): ≥ 100 µM
CC[C@H](C)[C@H](NC(=O)[C@@H](NC(=O)[C@@H]1CCCN1C(=O)[C@@H](NC(=O)[C@@H](NC(=O)[C@H](Cc1cnc[nH]1)NC(=O)[C@@H]1CCCN1C(=O)[C@H](CC(C)C)NC(=O)[C@@H](NC(=O)[C@H](Cc1cnc[nH]1)NC(=O)[C@H](CCCCN)NC(=O)[C@H](C)NC(=O)[C@@H](NC(=O)[C@H](CO)NC(=O)CNC(=O)[C@H](CC(C)C)NC(=O)[C@@H](NC(=O)[C@H](CO)NC(=O)[C@H](CC(C)C)NC(=O)[C@H](CC(C)C)NC(=O)CN)C(C)C)C(C)C)C(C)C)C(C)C)C(C)C)C(C)C)C(=O)N[C@@H](C)C(=O)N[C@@H](CCC(=O)O)C(=O)N[C@@H](CCCCN)C(=O)N[C@@H](CC(C)C)C(N)=O [GLLSVLGSVAKHVLPHVVPVIAEKL] |  | ≥ 38.8 | > 38.8 | 2.33 (≈ 6 µg/mL) | 19.4 (≈ 50 µg/mL) | 9.7 (≈ 25 µg/mL) | ≥ 38.8 | > 38.8 | ≥ 38.8 | 19.4 (≈ 50 µg/mL) |  | 
CC[C@H](C)[C@H](NC(=O)[C@H](C)NC(=O)[C@H](CCSC)NC(=O)CNC(=O)[C@H](CCCCN)NC(=O)[C@@H](NC(=O)[C@H](CO)NC(=O)[C@H](CC(=O)O)NC(=O)[C@H](CC(C)C)NC(=O)[C@H](CC(C)C)NC(=O)CN)[C@@H](C)CC)C(=O)N[C@@H](CO)C(=O)N[C@@H](C)C(=O)NCC(=O)N[C@@H](CCCCN)C(=O)NCC(=O)N[C@@H](C)C(=O)N[C@@H](CC(C)C)C(=O)N[C@@H](CCC(N)=O)C(=O)N[C@@H](CC(N)=O)C(=O)N[C@@H](CC(C)C)C(=O)N[C@@H](CC(C)C)C(=O)N[C@@H](CCCCN)C(=O)N[C@H](C(=O)N[C@@H](C)C(=O)N[C@@H](CO)C(=O)N[C@H]1CSSC[C@@H](C(=O)O)NC(=O)[C@H]([C@@H](C)O)NC(=O)[C@H](CCCCN)NC(=O)[C@H](CC(=O)O)NC(=O)[C@H](CC(C)C)NC(=O)[C@H](CCCCN)NC1=O)C(C)C [GLLDSIKGMAISAGKGALQNLLKVASCKLDKTC] |  |  |  |  |  | 0.747 (≈ 2.5 µg/mL) |  |  |  |  |  | MIC (Candida albicans): 29.9 µM (≈ 99.9 µg/mL); MIC (Klebsiella pneumoniae): 2.99 µM (≈ 9.99 µg/mL); MIC (Proteus mirabilis): ≥ 59.7 µM; MIC (Pseudomonas aeruginosa): 22.4 µM (≈ 75 µg/mL); MIC (Salmonella typhimurium): 6.72 µM (≈ 22.5 µg/mL); MIC (Serratia marcescens): ≥ 59.7 µM; MIC (Shigella dysenteriae): 2.99 µM (≈ 9.99 µg/mL)
CC(C)C[C@H](NC(=O)[C@H](CC(C)C)NC(=O)[C@H](CCCCN)NC(=O)CNC(=O)[C@H](C)NC(=O)[C@H](C)NC(=O)[C@H](CCCCN)NC(=O)[C@H](CC(C)C)NC(=O)[C@H](C)NC(=O)[C@H](CO)NC(=O)[C@H](CC(C)C)NC(=O)[C@H](CC(C)C)NC(=O)CN)C(N)=O [GLLSALKAAGKLL] | 12.5 (≈ 15.7 µg/mL) |  |  |  |  |  |  |  |  |  | 12.5 (≈ 15.7 µg/mL) | MIC [4]: > 25 µM
CC[C@H](C)[C@H](NC(=O)[C@H](CCCCN)NC(=O)[C@H](CCC(N)=O)NC(=O)[C@@H](NC(=O)[C@@H](NC(=O)[C@H](CCCN=C(N)N)NC(=O)[C@H](CCCCN)NC(=O)[C@H](Cc1ccccc1)NC(=O)CN)[C@@H](C)CC)C(C)C)C(=O)N[C@@H](CCCN=C(N)N)C(=O)N[C@@H](CC(=O)O)C(=O)N[C@@H](Cc1ccccc1)C(=O)N[C@@H](CC(C)C)C(=O)N[C@@H](CCCN=C(N)N)C(=O)N[C@@H](CC(N)=O)C(=O)N[C@@H](CC(C)C)C(=O)N[C@H](C(N)=O)C(C)C [GFKRIVQKIRDFLRNLV] | 2.2 (≈ 4.62 µg/mL) |  |  |  |  |  |  |  |  |  | 4.4 (≈ 9.25 µg/mL) | MIC [7]: 3.1 µM (≈ 6.51 µg/mL); MIC [4]: 25 µM (≈ 52.5 µg/mL)

The next lines start with results.

MIC [1] [µM] | MIC (Bacillus cereus) [µM] | MIC (Escherichia coli) [µM] | MIC (Leuconostoc lactis) [µM] | MIC (Listeria innocua) [µM] | MIC (Micrococcus luteus) [µM] | MIC (Pasteurella multocida) [µM] | MIC (Staphylococcus aureus) [µM] | MIC [2] [µM] | MIC (Streptococcus uberis) [µM] | MIC [3] [µM] | Compound | also measured
 | ≥ 41.7 | > 41.7 | ≥ 41.7 | ≥ 41.7 | 1.25 (≈ 3 µg/mL) | ≥ 41.7 | > 41.7 | ≥ 41.7 | ≥ 41.7 |  | CC[C@H](C)[C@H](NC(=O)CNC(=O)[C@H](CO)NC(=O)[C@@H](NC(=O)[C@H](CC(C)C)NC(=O)[C@H](CCC(=O)O)NC(=O)[C@H](CO)NC(=O)[C@H](C)NC(=O)[C@H](CCCCN)NC(=O)[C@H](CCC(=O)O)NC(=O)[C@H](CCCCN)NC(=O)[C@@H](NC(=O)[C@H](CCCCN)NC(=O)[C@H](CCC(=O)O)NC(=O)[C@H](Cc1c[nH]c2ccccc12)NC(=O)[C@H](CC(C)C)NC(=O)CN)[C@@H](C)CC)C(C)C)C(=O)N[C@H](C(=O)N[C@@H](CCC(=O)O)C(=O)NCC(=O)N[C@H](C(=O)N[C@@H](CCCCN)C(=O)O)C(C)C)C(C)C [GLWEKIKEKASELVSGIVEGVK] | 
 | ≥ 42.3 | > 42.3 | ≥ 42.3 | ≥ 42.3 | ≥ 42.3 | ≥ 42.3 | 21.2 (≈ 50 µg/mL) | ≥ 42.3 | 2.54 (≈ 6 µg/mL) |  | CC[C@H](C)[C@H](NC(=O)[C@H](C)NC(=O)[C@@H]1CCCN1C(=O)[C@@H](NC(=O)[C@@H](NC(=O)[C@H](Cc1cnc[nH]1)NC(=O)[C@H](CO)NC(=O)[C@H](C)NC(=O)[C@@H](NC(=O)[C@H](CCCCN)NC(=O)[C@H](C)NC(=O)[C@H](CC(C)C)NC(=O)[C@@H](NC(=O)CNC(=O)[C@H](Cc1ccccc1)NC(=O)[C@H](CC(C)C)NC(=O)CN)C(C)C)C(C)C)C(C)C)C(C)C)C(=O)N[C@@H](C)C(=O)N[C@@H](CCC(=O)O)C(=O)N[C@@H](Cc1cnc[nH]1)C(=O)N[C@@H](Cc1ccccc1)C(=O)N[C@@H](CCC(N)=O)C(=O)N[C@@H](C)C(N)=O [GLFGVLAKVASHVVPAIAEHFQA] | MIC (Enterococcus faecalis): ≥ 42.3 µM
 | 30.7 (≈ 50 µg/mL) | > 61.4 | 3.68 (≈ 6 µg/mL) | ≥ 61.4 | 7.37 (≈ 12 µg/mL) | ≥ 61.4 | 15.3 (≈ 25 µg/mL) | 7.37 (≈ 12 µg/mL) | 30.7 (≈ 50 µg/mL) |  | CC[C@H](C)[C@H](NC(=O)[C@@H](NC(=O)[C@H](CO)NC(=O)[C@H](C)NC(=O)[C@@H](NC(=O)[C@H](CCCCN)NC(=O)[C@H](CCCCN)NC(=O)[C@@H](NC(=O)[C@@H](NC(=O)[C@H](CCCCN)NC(=O)[C@H](Cc1ccccc1)NC(=O)[C@H](CC(C)C)NC(=O)CN)C(C)C)[C@@H](C)CC)C(C)C)C(C)C)C(=O)NCC(=O)NCC(=O)N[C@@H](CC(C)C)C(N)=O [GLFKVIKKVASVIGGL] | 
 |  |  |  |  |  |  |  |  |  | > 51.4 | CC[C@H](C)[C@H](NC(=O)[C@H](CCCCN)NC(=O)[C@H](CS)NC(=O)[C@H](CC(C)C)NC(=O)CNC(=O)CNC(=O)[C@H](C)NC(=O)[C@@H](NC(=O)[C@H](CC(N)=O)NC(=O)[C@H](CCCCN)NC(=O)[C@H](CC(C)C)NC(=O)[C@@H](NC(=O)[C@H](CC(N)=O)NC(=O)[C@H](C)NC(=O)[C@H](Cc1c[nH]c2ccccc12)NC(=O)CN)[C@@H](C)O)C(C)C)C(=O)N[C@H](C(=O)NCC(=O)N[C@@H](C)C(=O)N[C@@H](C)C(=O)O)[C@@H](C)O [GWANTLKNVAGGLCKITGAA] | MIC (Acinetobacter baumannii): 19.3 µM (≈ 37.5 µg/mL); MIC [5]: ≥ 38.6 µM; MIC (Enterococcus faecium): 19.3 µM (≈ 37.5 µg/mL); MIC (Klebsiella pneumoniae): > 51.4 µM; MIC (Serratia marcescens): ≥ 51.4 µM; MIC [6]: 19.3 µM (≈ 37.5 µg/mL)
